In US20230365673A1, “MEANS FOR REDUCING RADIO- AND CHEMOTHERAPY RESISTANCE AND ADVERSE EFFECTS” (JOHANN WOLFGANG GOETHE-UNIVERSITÄT FRANKFURT AM MAIN, priority 2020, published 2023):

System: APTKA orthotopic tumours
Assay: Orthotopic APTKA organoid rectal cancer model with local fractionated radiotherapy (5×2 Gy)
Type: in vivo, C57BL/6 mice
From the text: (A and B) Schematic representation of the orthotopic transplantation of APTKA & APTK mouse organoids into C57BL/6 mice followed by local fractionated radiotherapy (5×2 Gy) of established tumours and end point colonoscopy 21 days after the last irradiation. (C) Heat map analysis of RNA sequencing data of APTKA (n=4) and APTK (n=5) orthotopic tumours. (D) GSEA of CAF signature using RNA sequencing data of APTKA and APTK orthotopic tumours. Significant NES≤−1; FDR q-value<0.05. (E) H&E stained sections of APTK and APTKA untreated and irradiated orthotopic tumours 21 days after last irradiation. Scale bars=500 μm. (F and G) Overall tumour (mm3) and invasive area (%) of untreated (n=5) and irradiated (n=6) APTK orthotopic tumours. Data are mean±SD. *** p<0.001 and **** p<0.0001 by t-test. (H and I) Overall tumour (mm3) and invasive area (%) of untreated (n=5) and irradiated (n=5) APTKA orthotopic tumours. ** p<0.01 by t-test. Data are mean±SD. (J) Frequency of mice with liver metastasis in untreated or irradiated APTKA orthotopic tumours (n=5 mice per group). (K) H&E staining of untreated and irradiated APTKA orthotopic tumours. Scale bars=300 μm. Representative images of αSMA (Green), Vimentin (Blue) and Collagen (Yellow) multiplex immunofluorescence of untreated and irradiated APTKA tumours. Scale bars=400 μm. Sirius red staining of APTKA orthotopic tumours upon radiotherapy. Scale bars=300 μm. (L) Percent of αSMA, Vim and Col1 triple positive cells in untreated (n=9) and irradiated (n=10) APTKA tumours. Data are mean±SD. ** p<0.01 by t-test. (M) Sirius red pixel positivity in untreated (n=7) and irradiated (n=6) APTKA tumours. Data are mean±SD. * p<0.05 by t-test. (N-P) Ex vivo irradiation (5×2Gy) of APTKA and APTK organoids: (N) relative fluorescent units of untreated and irradiated organoids, 6 h post last dose, using resazurin cell viability kit (n=4 independent wells per condition); (O) quantification of the number of fully grown untreated and irradiated organoids 4 days' post first reseeding (n=7 to 9 independent wells per condition); (P) subcutaneous tumour growth in C57BL/6 mice transplanted with untreated or irradiated organoids. Data are mean±SD. N=6 mice per group; p<0.05 by one-way ANOVA followed by Tukey's multiple comparisons test. Representative results from one experiment which has been independently repeated least 3 times.
(A) Schematic representation of the orthotopic transplantation of APTKA mouse organoids into C57BL/6 mice followed by 5×2 Gy radiotherapy of established tumours untreated or treated daily with anakinra (500 μg/day) for 21 days. (B and C) Overall tumour size (mm3) and % invasive area of 5×2Gy radiated APTKA orthotopic tumours 21 days after last irradiation without (n=5) or with (n=4) anakinra treatment (500 μg/day). Data are mean±SD; p<0.05 by t-test. (D) Frequency of mice with liver metastasis upon irradiation of APTKA orthotopic tumours without (n=5) or with (n=4) anakinra treatment (500 μg/day). (E and F) Sirius red staining of untreated (n=3) or anakinra treated (n=4) 5×2 Gy irradiated APTKA tumours. Scale bars=200 μm. Data are mean±SD. *** p<0.001 by t-test. (G, H) αSMA immunofluorescent staining and its quantification of irradiated APTKA orthotopic tumours without (n=5) or with (n=4) anakinra treatment (500 μg/day). Scale bars=200 μm. Data are mean±SD; p<0.05 by t-test. (I) Schematic representation of IL-1α overexpression in APTK organoids by CRISPRa/Cas9. (J) ELISA of IL-1α protein levels in conditioned media from APTK sgctrl and APTK sgIL-1α organoids (n=4 independent wells per group). Data are mean±SD. **** p<0.0001 by t-test. (K) Relative RNA expression of inflammatory genes in fibroblasts treated with conditioned media from APTK sgctrl and APTK sgIL-1α organoids for 24 h (n=5 independent wells per condition). Data are mean±SD. **** p<0.0001 by t-test. Representative results from one experiment which has been independently repeated 2 times. […]

[1] = anakinra 500 μg/day plus 5×2 Gy
[2] = anakinra 500 μg/day plus 5×2 Gy, 21 days after last irradiation

## anakinra: Kineret®, an interleukin-1 receptor antagonist
Anakinra 500 μg/day alone, no irradiation, data not shown
  APTKA tumour growth: did not affect APTKA tumour growth significantly
[1]
  metastasis formation (liver): blocked metastasis formation
  number of αSMA+ cells: decreased number of αSMA+cells
  sirius red staining: significant decrease in sirius red staining
[2]
  invasion (% invasive area): marked reduction in tumour size and invasion
  tumour size: marked reduction in tumour size
